# Where two headings read alike, the source gives them in different places.
# Experiments:
# Format in all cases: cell-based, zebrafish (Danio rerio)
# [1] = test system: AhR (AhR/ARNT/XRE pathway); test: AhR-responsive transient dual luciferase reporter gene (DLR) assay in ZFL cells; details: zebrafish, BNF exposure
# Description: (§1) ZFL cells were seeded either into white, clear-bottom 96-well microtiter plates (Corning, New York, USA; for DLR assays) or transparent 96-well microtiter plates (Corning, New York, USA; for viability assays) at a density of 1.5 × 10^5 cells/mL, in 100 μL/well. After 24 h of incubation, cells reached a confluence of about 80%.
# (§2) The transient transfection was conducted in a 2-μg transfection reagent to 1 μg plasmid DNA ratio, applying the XHP transfection reagent (Roche, Mannheim, Germany). Specific transfection optimization experiments were reported priory (Lungu-Mitea et al. [2018]). The transient transfection reaction was incubated as a co-transfection in a 10:1 reporter to control ratio (0.9 μg reporter plasmid, 0.1 μg control plasmid) for 30 min, before adding the reaction mixture to the cells. Firefly luciferase-bearing vectors were used as the primary reporter plasmids, and Renilla luciferase-bearing vectors were used for normalization (control plasmid). Ten microliter per well of the transfection reaction mix was added to the cells and incubated for 24 h. Following (Lungu-Mitea and Lundqvist [2020]), cells used in both DLR and viability assays were transiently transfected.
# (§3) Prepared aliquots of stock solutions were thawed and further titrated using the nutrition medium supplemented with 5‰ (v/v) DMSO as a solvent. […] Different exposure regimes were applied. […] All potential co-transfection combinations were screened in this initial approach. […] Further, cells transfected with candidate plasmid combinations were subjected to a TCDD exposure regime from 100 pM to 100 nM (0.1, 0.3, 1, 3, 10, 30, 100 nM). Cells were exposed in 100 μL/well of the specifically spiked nutrition medium. Solvent controls (negative controls) were conducted in six replicates for every specific experiment.
# (§4) After 24 h of exposure to AhR-agonists, cells on white 96-well microtiter plates were lysed in 20-μL passive lysis buffer (PLB; Promega, Madison, USA), and quantitative AhR-dependent luminescence was measured via Dual-Luciferase® Reporter Assay (DLR; Promega, Madison, USA), according to the manufacturer’s protocol using an auto-injecting Infinite M1000 microplate reader (Tecan, Männedorf, Switzerland), following a flash luminescence protocol. The luciferase activity was normalized to transfection efficiency (Firefly raw light unit readout divided by Renilla raw light unit readout) and further expressed as fold change compared to the non-treated controls.
# (§5) In terms of the NOEC/LOEC analyses, for both approaches (DLR and viability), mean background values (blanks) were subtracted from the raw values, and the data was computed as fold induction in relation to the negative controls. Means of every experiment were pooled (experimental unit n = 3–5; observational unit N = 9–15). Normality was tested by Shapiro–Wilk and Kolmogorov–Smirnov tests (both significance level alpha = 0.05) and analyzed graphically via normal-qq-plot. Non-normal data were log-transformed and re-analyzed. Given normality, statistically differing significance in the output signal from the negative controls was assessed via one-way ANOVA, followed by Dunnett’s post hoc test (for multiple comparisons vs. control). Residuals were graphically analyzed by quantile–quantile plot (actual vs. predicted residuals), homoscedasticity plot (absolute residuals vs. fitted), and residual plot (residuals vs. fitted) to ensure ANOVA criteria were met. Further, Brown–Forsythe and Bartlett’s tests were conducted to check for the residuals’ homoscedasticity and normality. Beyond statistical significance, for all viability tests, a threshold of 80% as compared to the negative control (corresponding 0.8) was determined as biologically significant and marked with a dotted red line within all respective graphs. […]
# [2] = test system: AhR transcription factor activation (AhR/ARNT/XRE pathway); test: as above
# Description: as §1, §2, §3, §4, §5
# ZFL cells = test: MTS/BCA-multiplex viability assay on transiently transfected ZFL cells
# Description: In parallel to the DLR assays, MTS/BCA-multiplex assays were conducted on identically treated cells. The MTS/BCA-multiplex assay, which is described in detail in (Lungu-Mitea et al. [2021]), scores NADPH-turnover and total protein amount as apical endpoints of cell viability or cytotoxicity. After 24 h exposure, the spiked nutrition medium was discharged, cells were washed once in 100 µL/well PBS, and 100 µL/well Earle’s Balanced Salt Solution (EBSS; Gibco, Paisley, UK) was added. MTS-based CellTiter 96® AQueous One Solution Cell Proliferation Assay (Promega, Madison, USA) was conducted following the manufacturer’s protocol. Seventeen percent (v/v) MTS reagent were added to the wells. After 2 h of incubation at 28 °C and atmospherical CO2, formazan product turnover absorbance was measured at 490 nm using an Infinite M1000 microplate reader. Afterwards, EBSS and MTS reagents were removed. Cells were washed once in 100 µL/well PBS and lysed in 20-µL PLB at RT for 30 min. Bicinchoninic Acid Protein Assay (BCA, Sigma-Aldrich, St. Louis, USA) was conducted following the manufacturer’s protocol. One hundred eighty microliters of BCA-reagent was added to every well, plates were agitated shortly, and incubated for 20 min at 60 °C. After cooling down for 15 min at RT, absorbance was measured at 562 nm using an Infinite M1000 microplate reader.
# In terms of the NOEC/LOEC analyses, for both approaches (DLR and viability), mean background values (blanks) were subtracted from the raw values, and the data was computed as fold induction in relation to the negative controls. Means of every experiment were pooled (experimental unit n = 3–5; observational unit N = 9–15). Normality was tested by Shapiro–Wilk and Kolmogorov–Smirnov tests (both significance level alpha = 0.05) and analyzed graphically via normal-qq-plot. Non-normal data were log-transformed and re-analyzed. Given normality, statistically differing significance in the output signal from the negative controls was assessed via one-way ANOVA, followed by Dunnett’s post hoc test (for multiple comparisons vs. control). Residuals were graphically analyzed by quantile–quantile plot (actual vs. predicted residuals), homoscedasticity plot (absolute residuals vs. fitted), and residual plot (residuals vs. fitted) to ensure ANOVA criteria were met. Further, Brown–Forsythe and Bartlett’s tests were conducted to check for the residuals’ homoscedasticity and normality. Beyond statistical significance, for all viability tests, a threshold of 80% as compared to the negative control (corresponding 0.8) was determined as biologically significant and marked with a dotted red line within all respective graphs.
smiles,measurement,setting,value
"O=c1cc(-c2ccccc2)oc2ccc3ccccc3c12 [BNF, β-naphthoflavone]",IC50,"[1]; all tested setups, see Table 2, read-out: IC50, range over co-transfection setups",[…]
same,effect on AhR-related signal,"[2]; 300 nM BNF, pGudluc7.5 with non-viral promoter normalization vectors (Fig. 1C + D)",statistically significant inhibition
same,maximum induction of AhR-related luminescence,"[2]; BNF at 10 nM, pGL4.43 + pRL-null[zfEF1aPro] (Fig. S5)",3.9 fold
same,LOEC,"[2]; BNF exposure, pGL4.43 + pRL-null[zfEF1aPro] (Fig. S5)",3 nM
same,EC50,"[2]; BNF exposure, setup (a) pGL4.43 + pGL4.70, bell-shaped regression, normalized induction",2.95 nM
same,induction of AhR-related luciferase signal,"[2]; BNF screening, co-transfection with pGudluc7.5 (Figs. 1C + D, 2, S4)",no overall statistically significant induction
same,induction of AhR-related luciferase response,"[2]; BNF screening, pGL4.43 + pGL4.74, pGL4.43 + pRL-SV40, pGL4.43 + pGL4.73 (viral promoters)",1.5- to threefold
same,statistically significant cytotoxicity,"ZFL cells; BNF 3-300 nM, pGL4.43 with any viral promoter-bearing vector (Fig. S3)",No statistically significant cytotoxicity
same,cytotoxicity by biological threshold (0.8),"ZFL cells; BNF highest exposure concentration, pGL4.43 + pRL-SV40 and pRL-CMV, at least one endpoint (Fig. S3D + F)",depicted cytotoxicity by biological threshold definition
same,cytotoxicity (statistical or biological significance),"ZFL cells; BNF highest exposure concentration, pGudluc7.5 + CMV and SV40-bearing vectors, at least one apical endpoint (Fig. S4C-F)",Cytotoxicity was recorded
same,statistically significant cytotoxicity (MTS and BCA endpoints),"ZFL cells; BNF, entire concentration range up to 1 µM, non-viral promoter setups (Fig. 1)",no statistically significant cytotoxicity

# — article PMC10406726, “Development, scrutiny, and modulation of transient reporter gene assays of the xenobiotic metabolism pathway in zebrafish hepatocytes” (Cell Biology and Toxicology, 2021)
